Key:
[1] = system: RPMI-8226; assay: cells; format: cell-based; settings: Homo sapiens; RPMI-8226; 10 μM; read-out: growth inhibition % (GI%)
[2] = system: ACHN; assay: cells; format: cell-based; settings: Homo sapiens, 10 μM, read-out: growth inhibition % (GI%)
[3] = system: MCF7; assay: cells; format: cell-based; settings: Homo sapiens; MCF7; 10 μM; read-out: growth inhibition % (GI%)
[4] = system: HOP-62; assay: cells; format: cell-based; settings: Homo sapiens; HOP-62; 10 μM; read-out: growth inhibition % (GI%)
[5] = system: A498; assay: cells; format: cell-based; settings: Homo sapiens; A498; 10 μM; read-out: growth inhibition % (GI%)
[6] = system: MOLT-4; assay: cells; format: cell-based; settings: Homo sapiens; MOLT-4; 10 μM; read-out: growth inhibition % (GI%)
[7] = system: SW-620; assay: cells; format: cell-based; settings: Homo sapiens; SW-620; 10 μM; read-out: growth inhibition % (GI%)
[8] = system: HT29; assay: cells; format: cell-based; settings: Homo sapiens, HT-29; HT29; 10 μM; read-out: growth inhibition % (GI%)
[9] = system: T-47D; assay: cells; format: cell-based; settings: Homo sapiens, T47D; T-47D; 10 μM; read-out: growth inhibition % (GI%)
[10] = system: NCI/ADR-RES; assay: cells; format: cell-based; settings: Homo sapiens, 10 μM, read-out: growth inhibition % (GI%)
[11] = system: SNB-19; assay: cells; format: cell-based; settings: Homo sapiens; SNB-19; 10 μM; read-out: growth inhibition % (GI%)
[12] = system: SK-OV-3; assay: cells; format: cell-based; settings: Homo sapiens; SK-OV-3; 10 μM; read-out: growth inhibition % (GI%)
[13] = system: U251; assay: cells; format: cell-based; settings: Homo sapiens, U-251; U251; 10 μM; read-out: growth inhibition % (GI%)
[14] = system: DU-145; assay: cells; format: cell-based; settings: Homo sapiens; DU-145; 10 μM; read-out: growth inhibition % (GI%)
[15] = system: LOX IMIV; assay: cells; format: cell-based; settings: Homo sapiens, 60 cell; LOX IMIV; 10 μM; read-out: growth inhibition % (GI%)
[16] = system: MDA-MB-468; assay: NCI 60 cell line antiproliferative screening (SRB), Breast cancer; settings: Homo sapiens, MDA-MB-468, read-out: growth inhibition % (GI%)
[17] = system: MALME-3M; assay: cells; format: cell-based; settings: Homo sapiens; MALME-3M; 10 μM; read-out: growth inhibition % (GI%)
[18] = system: MDA-MB-435; assay: cells; format: cell-based; settings: Homo sapiens; MDA-MB-435; 10 μM; read-out: growth inhibition % (GI%)
[19] = system: K-562; assay: cells; format: cell-based; settings: Homo sapiens, K562; K-562; 10 μM; read-out: growth inhibition % (GI%)
[20] = system: panel of 60 tumour cell lines; assay: NCI 60 cell line antiproliferative screening (SRB), whole panel or subpanels (means, ranges, words); format: cell-based, human; settings: Homo sapiens, 60 cell, mean over the cell line panel; 10 μM; read-out: Mean growth inhibition % (mean GI%)
[21] = system: IGROV1; assay: cells; format: cell-based; settings: Homo sapiens, IGROV-1; IGROV1; 10 μM; read-out: growth inhibition % (GI%)
[22] = system: OVCAR-5; assay: cells; format: cell-based; settings: Homo sapiens; OVCAR-5; 10 μM; read-out: growth inhibition % (GI%)
[23] = system: KM12; assay: cells; format: cell-based; settings: Homo sapiens; KM12; 10 μM; read-out: growth inhibition % (GI%)
[24] = system: BT-549; assay: cells; format: cell-based; settings: Homo sapiens; BT-549; 10 μM; read-out: growth inhibition % (GI%)
[25] = system: OVCAR-8; assay: cells; format: cell-based; settings: Homo sapiens; OVCAR-8; 10 μM; read-out: growth inhibition % (GI%)
[26] = system: A549/ATCC; assay: cells; format: cell-based; settings: Homo sapiens; A549/ATCC; 10 μM; read-out: growth inhibition % (GI%)
[27] = system: SF-268; assay: cells; format: cell-based; settings: Homo sapiens; SF-268; 10 μM; read-out: growth inhibition % (GI%)
[28] = system: HS 578T; assay: cells; format: cell-based; settings: Homo sapiens; HS 578T; 10 μM; read-out: growth inhibition % (GI%)
[29] = system: SR; assay: cells; format: cell-based; settings: Homo sapiens, 10 μM, read-out: growth inhibition % (GI%)
[30] = system: HCT-116; assay: cells; format: cell-based; settings: Homo sapiens; HCT-116; 10 μM; read-out: growth inhibition % (GI%)
[31] = system: SK-MEL-28; assay: cells; format: cell-based; settings: Homo sapiens; SK-MEL-28; 10 μM; read-out: growth inhibition % (GI%)
[32] = system: HOP-92; assay: cells; format: cell-based; settings: Homo sapiens; HOP-92; 10 μM; read-out: growth inhibition % (GI%)
[33] = system: EKVX; assay: cells; format: cell-based; settings: Homo sapiens, 10 μM, read-out: growth inhibition % (GI%)
[34] = system: UACC-62; assay: cells; format: cell-based; settings: Homo sapiens; UACC-62; 10 μM; read-out: growth inhibition % (GI%)
[35] = system: PC-3; assay: cells; format: cell-based; settings: Homo sapiens; PC-3; 10 μM; read-out: growth inhibition % (GI%)
[36] = system: SK-MEL-5; assay: cells; format: cell-based; settings: Homo sapiens; SK-MEL-5; 10 μM; read-out: growth inhibition % (GI%)
[37] = system: NCI-H322M; assay: cells; format: cell-based; settings: Homo sapiens, 10 μM, read-out: growth inhibition % (GI%)
[38] = system: CCRF-CEM; assay: cells; format: cell-based; settings: Homo sapiens, 10 μM, read-out: growth inhibition % (GI%)
[39] = system: SF-295; assay: cells; format: cell-based; settings: Homo sapiens; SF-295; 10 μM; read-out: growth inhibition % (GI%)
[40] = system: COLO-205; assay: cells; format: cell-based; settings: Homo sapiens; COLO-205; 10 μM; read-out: growth inhibition % (GI%)
[41] = system: SN12C; assay: cells; format: cell-based; settings: Homo sapiens, 10 μM, read-out: growth inhibition % (GI%)
[42] = system: SK-MEL-2; assay: cells; format: cell-based; settings: Homo sapiens; SK-MEL-2; 10 μM; read-out: growth inhibition % (GI%)
[43] = system: NCI-H460; assay: cells; format: cell-based; settings: Homo sapiens; NCI-H460; 10 μM; read-out: growth inhibition % (GI%)
[44] = system: MDA-MB-231/ATCC; assay: NCI 60 cell line antiproliferative screening (SRB), Breast cancer; format: cell-based; settings: Homo sapiens, MDA-MB-231, read-out: growth inhibition % (GI%)
[45] = system: UO-31; assay: cells; format: cell-based; settings: Homo sapiens; UO-31; 10 μM; read-out: growth inhibition % (GI%)
[46] = system: 786-0; assay: cells; format: cell-based; settings: Homo sapiens; 786-0; 10 μM; read-out: growth inhibition % (GI%)
[47] = system: SF-539; assay: cells; format: cell-based; settings: Homo sapiens; SF-539; 10 μM; read-out: growth inhibition % (GI%)

Measured: inhibition at 10 µM

O=C(CSc1nc2ccccc2c(=O)n1-c1ccccc1)NN=Cc1ccc(N2CCCCC2)cc1 [6g, 2-((4-oxo-3-phenyl-3,4-dihydroquinazolin-2-yl)thio)-N'-(4-(piperidin-1-yl)benzylidene) acetohydrazide]
18.5%: [35]
24.7%: [29]
15.5%: [30]
15.1%: [26]
23.3%: [45]
16.2%: [3]
4.28%: [20]
19.5%: [32]
28.5%: [6]
20.4%: [33]
26.8%: [19]
17.6%: [1]
< 15%: all other assays above

— publication PMC9518264, “Design and synthesis of novel quinazolinone-based derivatives as EGFR inhibitors with antitumor activity” (Journal of Enzyme Inhibition and Medicinal Chemistry, 2022)
